From PMC6072256 (ACS Omega, 2018)

Biological target: chymotrypsin (Bos taurus, UniProt P00766)
Test: chymotrypsin inhibition assay
Type: biochemical
Details: protease inhibition test; statement of the abstract

## streptopeptolin [compound 1]
  inhibitory activity against chymotrypsin (in words): showed inhibitory activity
